Experimental data published in paper PMC9081329, “Pharmacokinetics, Mass Balance, Excretion, and Tissue Distribution of Plasmalogen Precursor PPI-1011” (Frontiers in Cell and Developmental Biology, 2022).

Test: Single dose tissue distribution study (QWBA, LSC of blood and plasma)
Type: in vivo, Sprague-Dawley rats
Protocol: Six male rats were administered a single oral dose of [^14C]PPI-1011 at 100 mg/kg (200 μCi/kg) and one rat was sacrificed at each of the following time points after the administration of the dose: 8, 12, 18, 24, 48, or 168 h. Terminal blood was collected by cardiac puncture directly into tubes with K2EDTA, an aliquot was stored at 4°C until LSC was performed for radioactivity, while the remaining blood was processed to plasma and stored at −20°C until LSC. Following blood collection, the carcasses were frozen in a cold bath with hexanes and dry ice for at least 8 min and then dried and stored at −70°C for at least 5 h. The carcasses were transferred to a −20°C freezer for at least 12 h before embedding.
QWBA was used to determine radioactivity concentrations in the caecum (contents and mucosa), large intestine (contents and mucosa), small intestine (contents and mucosa), stomach (contents and mucosa), brain, choroid plexus, spinal cord, bone, skin, adrenal gland, pineal body, pituitary gland, thyroid gland, liver, kidney (cortex, medulla and whole kidney), urinary bladder (contents and wall), brown fat, white fat, eye (lens, uveal tract and whole eye), epididymis, prostate gland, testis, ovary, uterus, lung, exorbital lachrymal gland, Harderian gland, pancreas, salivary gland, skeletal muscle, myocardium, cardiac blood, bone marrow, lymph node, spleen, and thymus. As well, LSC was used to determine the total radioactivity in the whole blood and plasma.
The whole-body cryosectioning technique described by ([Ullberg, 1977]) was the basis for embedding and cryosectioning the rats assigned to this study. Each frozen carcass was shaved, and then the limbs and tail were removed prior to embedding. Chilled (4°C) 3% CMC (low viscosity) was utilized to provide a firm support of reinforced ice around each rat and for a secure attachment to the microtome stage. Upon thorough freezing of the embedding medium surrounding each rat, the frozen CMC block was removed from the freezing bath and four 3/8 inch holes were drilled into the block. One cryosection quality control standard (CQCS) was prepared with a known amount of radioactivity and at least 1 ml aliquots were added to each of the four drilled holes. CQCS data were utilized to evaluate the overall performance of the QWBA assay.
Each frozen rat was sagittally trimmed (50–100 μm) at −20°C until exposure of a few target tissues employing a Leica Cryomacrocut heavy-duty microtome (Leica Microsystems Inc.,). Disposable stainless steel Feather type H45L knives (Feather Safety Razor Co., Ltd.) were utilized for trimming and sectioning each frozen rat. Several thinner sections (50 μm) were discarded prior to obtaining multiple 50 μm sections at various cryosectioning levels for QWBA analysis. Upon the collection of at least 60 target tissues in multiple cryosectioning levels, the cryosections were kept in the Cryomacrocut cryochamber for a minimum of 18 h for dehydration depending upon the number of cryosections within the cryochamber. After dehydration was complete, the cryosections were transferred to ambient temperature for processing. Mounted whole-body cryosections and a set of 15 standards were sandwiched between a standard phosphor screen and an exposure cassette. All cryosections were exposed to the phosphor screen for 4-days in a cabinet protected with lead prior to scanning using a Typhoon PhosphorImager (Cytiva). MCID™ Analysis software (InterFocus Ltd.) was utilized to generate a calibration curve of the STD nominal concentrations (nCi/g) versus PhosphorImager response (counts/μm^2 minus background) by weighted (1/x) linear regression analysis ([Potchoiba et al., 1995]; [Potchoiba et al., 1998]). The linear regression curve was then utilized to determine the concentration (nCi/g) of total radioactivity in whole-body tissues and blood. Radioactivity concentrations were expressed as μg Eq/g based on the specific activity of the compound in the final dose formulations. […]

[1] = 12 h post single oral 100 mg/kg
[2] = 18 h post single oral 100 mg/kg
[3] = 24 h post single oral 100 mg/kg

Structure (SMILES): CC/C=C\C/C=C\C/C=C\C/C=C\C/C=C\C/C=C\CCC(=O)O[C@H](CO[14CH2]CCCCCCCCCCCCCCC)COC(=O)CCCCC1CCSS1 (stereo partly shown) [[^14C]PPI-1011]
- Radioactivity concentration, Olfactory Bulb [1]: 2.01 μg equivalents/g
- Radioactivity concentration, Pancreas [1]: 52.7 μg equivalents/g
- Radioactivity concentration, Parotid Gland [1]: 30.4 μg equivalents/g
- Radioactivity concentration, Pineal Gland [1]: 12.1 μg equivalents/g
- Radioactivity concentration, Pituitary Gland [1]: 21.2 μg equivalents/g
- Radioactivity concentration, Preputial Gland [1]: 214 μg equivalents/g
- Radioactivity concentration, Prostate [1]: 11.8 μg equivalents/g
- Radioactivity concentration, Renal Cortex [1]: 46.6 μg equivalents/g
- Radioactivity concentration, Renal Medulla [1]: 53.2 μg equivalents/g
- Radioactivity concentration, Salivary Gland [1]: 31.4 μg equivalents/g
- Radioactivity concentration, Seminal Vesicles [1]: 2.99 μg equivalents/g
- Radioactivity concentration, Skin - Non-Pigmented [1]: 18.0 μg equivalents/g
- Radioactivity concentration, Small Intestines [1]: 347 μg equivalents/g
- Radioactivity concentration, Spinal Cord [1]: 2.76 μg equivalents/g
- Radioactivity concentration, Spleen [1]: 111 μg equivalents/g
- Radioactivity concentration, Stomach [1]: 22.9 μg equivalents/g
- Radioactivity concentration, Testis [1]: 4.12 μg equivalents/g
- Radioactivity concentration, Thalamus [1]: 2.31 μg equivalents/g
- Radioactivity concentration, Thymus [1]: 12.2 μg equivalents/g
- Radioactivity concentration, Thyroid [1]: 43.1 μg equivalents/g
- Radioactivity concentration, Whole Brain [1]: 2.48 μg equivalents/g
- Radioactivity concentration, Adipose - Brown [2]: 66.0 μg equivalents/g
- Radioactivity concentration, Adipose - Brown (Vessel Wall) [2]: 94.2 μg equivalents/g
- Radioactivity concentration, Adipose - Subcutaneous [2]: 73.9 μg equivalents/g
- Radioactivity concentration, Adipose - Visceral [2]: 75.6 μg equivalents/g
- Radioactivity concentration, Adrenal Gland [2]: 185 μg equivalents/g
- Radioactivity concentration, Bladder Wall [2]: 14.5 μg equivalents/g
- Radioactivity concentration, Blood - QWBA [2]: 9.62 μg equivalents/g
- Radioactivity concentration, Bone Marrow [2]: 22.3 μg equivalents/g
- Radioactivity concentration, Bone Surface [2]: 1.25 μg equivalents/g
- Radioactivity concentration, Cecum [2]: 177 μg equivalents/g
- Radioactivity concentration, Cerebellum [2]: 3.03 μg equivalents/g
- Radioactivity concentration, Cerebrum [2]: 2.49 μg equivalents/g
- Radioactivity concentration, Choroid Plexus [2]: 12.8 μg equivalents/g
- Radioactivity concentration, Colliculus [2]: 2.94 μg equivalents/g
- Radioactivity concentration, Diaphragm [2]: 40.4 μg equivalents/g
- Radioactivity concentration, Epididymis [2]: 67.7 μg equivalents/g
- Radioactivity concentration, Esophagus [2]: 15.0 μg equivalents/g
- Radioactivity concentration, Exorbital Lacrimal Gland [2]: 8.74 μg equivalents/g
- Radioactivity concentration, Gastric Mucosa [2]: 70.1 μg equivalents/g
- Radioactivity concentration, Harderian Gland [2]: 14.7 μg equivalents/g
- Radioactivity concentration, Intra-Orbital Lacrimal Gland [2]: 8.91 μg equivalents/g
- Radioactivity concentration, Kidney [2]: 36.1 μg equivalents/g
- Radioactivity concentration, Large Intestines [2]: 154 μg equivalents/g
- Radioactivity concentration, Liver [2]: 121 μg equivalents/g
- Radioactivity concentration, Lung [2]: 45.4 μg equivalents/g
- Radioactivity concentration, Lymph Node [2]: 22.5 μg equivalents/g
- Radioactivity concentration, Medulla Oblongata [2]: 2.23 μg equivalents/g
- Radioactivity concentration, Muscle [2]: 9.63 μg equivalents/g
- Radioactivity concentration, Myocardium [2]: 42.4 μg equivalents/g
- Radioactivity concentration, Nasal Turbinates [2]: 6.43 μg equivalents/g
- Radioactivity concentration, Ocular - Uveal Tract [2]: 5.32 μg equivalents/g
- Radioactivity concentration, Ocular - Whole Eye [2]: 1.65 μg equivalents/g
- Radioactivity concentration, Olfactory Bulb [2]: 1.75 μg equivalents/g
- Radioactivity concentration, Pancreas [2]: 39.8 μg equivalents/g
- Radioactivity concentration, Parotid Gland [2]: 35.2 μg equivalents/g
- Radioactivity concentration, Pineal Gland [2]: 16.2 μg equivalents/g
- Radioactivity concentration, Pituitary Gland [2]: 22.0 μg equivalents/g
- Radioactivity concentration, Preputial Gland [2]: 78.0 μg equivalents/g
- Radioactivity concentration, Prostate [2]: 28.0 μg equivalents/g
- Radioactivity concentration, Renal Cortex [2]: 38.1 μg equivalents/g
- Radioactivity concentration, Renal Medulla [2]: 23.0 μg equivalents/g
- Radioactivity concentration, Salivary Gland [2]: 28.8 μg equivalents/g
- Radioactivity concentration, Skin - Non-Pigmented [2]: 12.0 μg equivalents/g
- Radioactivity concentration, Small Intestines [2]: 239 μg equivalents/g
- Radioactivity concentration, Spinal Cord [2]: 3.20 μg equivalents/g
- Radioactivity concentration, Spleen [2]: 71.3 μg equivalents/g
- Radioactivity concentration, Stomach [2]: 21.6 μg equivalents/g
- Radioactivity concentration, Testis [2]: 5.09 μg equivalents/g
- Radioactivity concentration, Thalamus [2]: 2.20 μg equivalents/g
- Radioactivity concentration, Thymus [2]: 11.8 μg equivalents/g
- Radioactivity concentration, Thyroid [2]: 38.5 μg equivalents/g
- Radioactivity concentration, Whole Brain [2]: 2.70 μg equivalents/g
- Radioactivity concentration, Adipose - Brown [3]: 133 μg equivalents/g
- Radioactivity concentration, Adipose - Brown (Vessel Wall) [3]: 110 μg equivalents/g
- Radioactivity concentration, Adipose - Subcutaneous [3]: 70.1 μg equivalents/g
- Radioactivity concentration, Adipose - Visceral [3]: 71.6 μg equivalents/g
- Radioactivity concentration, Adrenal Gland [3]: 155 μg equivalents/g
- Radioactivity concentration, Bladder Wall [3]: 7.69 μg equivalents/g
- Radioactivity concentration, Blood - QWBA [3]: 5.62 μg equivalents/g
- Radioactivity concentration, Bone Marrow [3]: 18.3 μg equivalents/g
- Radioactivity concentration, Bone Surface [3]: 0.513 μg equivalents/g
- Radioactivity concentration, Cecum [3]: 231 μg equivalents/g
- Radioactivity concentration, Cerebellum [3]: 2.08 μg equivalents/g
- Radioactivity concentration, Cerebrum [3]: 1.61 μg equivalents/g
